Here are results for two substances from patent US20070218080A1, “Peptide antigen of human papillomavirus type 16 and application thereof” (Mackay Memorial Hospital, priority 2006, published 2007).

Test [1] has as its target T1, HLA-A2.1 antigens on T2 cell surface (Homo sapiens, UniProt P04439, D140Y/D185E/D98H/E176V/E277Q/G131W/G231S/I119V/I121R/I166T/I218V/L300P/L318F/N151K/N90K/P208A/P217A/Q86G/Q94H/R138H/R169H/T345S).
T1 construct: endogenous in cells; host or cells: T2 cells
Nature of the test: T2 cell binding assay. In kind it is cell-based. Conditions: T2 cells, 10 μg/ml synthetic peptide, 20 hours at 26° C., flow cytometry. From the text:
The binding test of the peptide in the invention was subjected to a T2 cell binding assay to measure the binding affinity for HLA-A2.1 antigens on T2 cell surface. T2 cells lack genes coding for transporter proteins for antigenic peptides (TAP1/TAP2) and therefore is not able to translocate peptide antigens processed by cells into the endoplasmic reticulum (ER). […] Therefore, the synthetic peptide antigens were used directly, not through cell processing, for the binding test with HLA-A2.1 antigens on T2 cell surface.
T2 cells that had been incubated overnight at 26° C. in RPMI 1640 containing 5% fetal bovine serum (FBS) were mixed with 10 μg/ml of pre-prepared synthetic peptide for 20 hours at 26° C. in RPMI containing 5% FCS and 5 μg/ml human β 2-microglobulin (β 2 m). The cells were then washed twice, incubated at 37° C. for 2 hours. […] Then the cells were incubated with fluorescein isothiocyanate (FITC) labeled anti-human HLA-A2.1 antibodies (BD Biosciences Pharmingen) to stain HLA-A2.1. The stains were fixed with 1% paraformaldehyde, and analyzed by flow cytometry. Because the binding of synthetic peptides and HLA-A2.1 antigens would be presented on the surface of lymphocytes, which could be recognized and bound by anti-human HLA-A2.1 antibodies. Therefore the fluorescein indicated the binding of synthetic peptides.
On the technique in general: In flow cytometry, cells or beads pass a laser one at a time.

In test [2] the test system is CD8+IFN-γ+ double-positive cells. The test can be described thus: In vivo induction of CD8 T cells proliferation. Also on record: species or system HLA-A2.1 transgenic C57BL/6 mice. On the procedure:
4-6 week-old HLA-A2.1 transgenic C57BL/6 mice were immunized with 100 μl containing 100 μg of SEQ ID NO: 1 peptide in adjuvant at 0.2 μM of CpG phosphorethioate oligodeoxynucleotide 1826 (CpG ODN 1826) via intramuscular injection three times at one week intervals. Five days after the third immunization, the splenocytes of mice were recovered and the numbers of CD8^+IFN-γ^+ double-positive cells were measured using flow cytometry analyses.

Test [3] deals with β-lymphocyte (HMy2.CIR, ATCC No.: CRL-1993) target cells. Nature of the test: Cytotoxicity assay (CTL activity). Type of test: cell-based. To be noted: splenocytes of immunized mice as effector cells. Here is the method:
The β-lymphocyte (HMy2.CIR, ATCC No.: CRL-1993) target cells were labeled with PKH-26 and carboxyfluorescein diacetate succinimidyl ester (CFSE). 4-6 week-old HLA-A2.1 transgenic C57BL/6 mice were immunized as described in Example 2 with 100 μl of the same dosage of SEQ ID NO: 1 peptide in adjuvant of CpG oligodeoxynucleotide via intramuscular injection three times at one week intervals. Five days after the third immunization, the splenocytes of mice were recovered as effector cells and incubated with the target cells […].
Target cells labeled with two dyes were cultivated in the absence of effector cells as the control group. When membrane damage occurs, the dye is almost instantaneously lost and the cells are no longer able to take up the charged dye.

Consider “positive control: HLA-A2.1 binding peptide obtained from tyrosinase peptide 369-377, positive control [reference compound]”, for which the “fluorescence intensity (FITC anti-human HLA-A2.1 staining)” value in test [1] is “around 35%”.
Consider “SEQ ID NO: 1: synthetic 9-amino-acid peptide, 63th to 71th amino acid sequence of HPV-16 E5 protein (YIIFVYIPL; Human papillomavirus type 16)”, for which, in test [1], the “fluorescence intensity (FITC anti-human HLA-A2.1 staining)” value is given as “around 22%”. Besides, the “number of CD8+IFN-γ+ double-positive cells” value in test [2] (splenocytes five days after third immunization, 100 μg peptide with CpG ODN 1826, intramuscular, three times at one week intervals) is 0.32%. Also, the “increase of CD8+IFN-γ+ double-positive cells in comparison to the irrelevant stimulator” value in test [2] (splenocytes of immunized mice vs control group) is reported as “about 4 fold”. In addition, the cytolytic activity amounted to 18% in test [3] (ET ratio 10) and 33% in test [3] (ET ratio 150).
